Values after ≈ are worked out from the molar mass of the structure shown. Like-named read-outs stand apart in the source and are kept apart here.
Legend:
E. coli ATCC 25922 = assay: MIC, E. coli ATCC 25922; type: cell-based; settings: for MIC: Escherichia coli
S. aureus ATCC 13709 = assay: MIC, S. aureus ATCC 13709; type: cell-based; settings: for MIC: Staphylococcus aureus
[1] = E. coli, Alamar Blue read after overnight incubation at 35° C.
[2] = S. aureus, Alamar Blue read after overnight incubation at 35° C.
[3] = ATCC25922, E. coli, Alamar Blue read after overnight incubation at 35° C., read-out: MIC Ec
[4] = ATCC13709, S. aureus, Alamar Blue read after overnight incubation at 35° C., read-out: MIC Sa

Compound | MIC Ec (E. coli ATCC 25922; [1]) [µg/mL] | MIC Sa (S. aureus ATCC 13709; [2]) [µg/mL] | other results
CNc1cc(F)cc2c1[nH]c1nc(Oc3cnc4ccnn4c3)nc(N3CC[C@]4(C[C@@H]4N)C3)c12 [Compound 10.12] | – | – | MIC Ec (E. coli ATCC 25922; Table 18, Ec): ≤ 0.5 µg/mL; MIC Sa (S. aureus ATCC 13709; Table 18, Sa): ≤ 0.5 µg/mL
CNc1cc(F)cc2c1[nH]c1nc(Oc3cnc(C)nc3)nc(-c3ccc(C4(N)CC4)cc3)c12 | – | – | MIC (E. coli ATCC 25922; ATCC25922, Table 16, new R4 substituents, EC8 not defined, read-out: EC8 MIC): 4 µg/mL (≈ 8.78 µM); MIC (S. aureus ATCC 13709; ATCC13709, Table 16, new R4 substituents, read-out: SA MIC): ≤ 0.5 µg/mL
CNc1cc(F)cc2c1[nH]c1nc(Oc3ccc4cncnc4c3)nc(N3C[C@H]4C[C@@H]3C[C@H]4N)c12 [Compound 10.96] | – | – | MIC Ec (E. coli ATCC 25922; Table 18, Ec): ≤ 0.5 µg/mL; MIC Sa (S. aureus ATCC 13709; Table 18, Sa): ≤ 0.5 µg/mL
CNc1cc(F)cc2c1[nH]c1nc(Oc3cncnc3)nc(N3CC4CC4(N)C3)c12 (stereo not shown) [Compound 4.005] | ≤0.5 | ≤0.5 | –
CNc1cc(F)cc2c1[nH]c1nc(Oc3cnc(C)nc3)nc(N3CC4(CC/C4=N\O)C3)c12 [Compound 10.61] | – | – | MIC Ec (E. coli ATCC 25922; Table 18, Ec): 2 µg/mL (≈ 4.46 µM); MIC Sa (S. aureus ATCC 13709; Table 18, Sa): 0.03 µg/mL (≈ 0.0669 µM)
CNc1cc(F)cc2c1[nH]c1nc(Oc3cnc4ccoc4c3)nc(N3CC4C(N)C4C3)c12 (stereo not shown) [Compound 4.291] | ≤0.5 | ≤0.5 | –
Cc1cc(F)cc2c1[nH]c1nc(Oc3cncnc3)nc(N3CC4C(N)C4C3)c12 (stereo not shown) [Compound 2.7] | >16 | 4 (≈ 10.2 µM) | –
CNc1cc(F)cc2c1[nH]c1nc(Oc3cnc(C4CC4)nc3)nc(N3CC4(CCC4N)C3)c12 (stereo not shown) [Compound 4.244] | ≤0.5 | ≤0.5 | –
CNc1cc(F)cc2c1[nH]c1nc(Oc3cnc(C)nc3)nc(N3CCC(S(N)(=O)=O)C3)c12 (stereo not shown) [Compound 10.104] | – | – | MIC Ec (E. coli ATCC 25922; Table 18, Ec): 8 µg/mL (≈ 16.9 µM); MIC Sa (S. aureus ATCC 13709; Table 18, Sa): ≤ 0.5 µg/mL
CNc1cc(F)cc2c1[nH]c1nc(Oc3cnc(SC)nc3)nc(N3CC4CCNC4C3)c12 (stereo not shown) [Compound 4.198] | ≤0.5 | ≤0.5 | –
CNc1ccc(C)c2c1[nH]c1nc(Sc3cnc4ccc[n+]([O-])c4c3)nc(N3CC4C(N)C4C3)c12 (stereo not shown) [Compound 1.73] | – | – | MIC (E. coli ATCC 25922; [3]): 8 µg/mL (≈ 16.5 µM); MIC (S. aureus ATCC 13709; [4]): ≤ 0.5 µg/mL
CNc1cc(F)cc2c1[nH]c1nc(Oc3cnc4ccnn4c3)nc(N3C[C@@H]4[C@H](N)C[C@]4(C)C3)c12 [Compound 10.18] | – | – | MIC Ec (E. coli ATCC 25922; Table 18, Ec): ≤ 0.5 µg/mL; MIC Sa (S. aureus ATCC 13709; Table 18, Sa): ≤ 0.5 µg/mL
Cc1cccc2c1[nH]c1nc(Sc3cnc4nccnc4c3)nc(N3CC4C(N)C4C3)c12 (stereo not shown) [Compound 1.07] | >32 | 4 (≈ 9.08 µM) | –
CNc1cc(F)cc2c1[nH]c1nc(Oc3cnc(C(C)C)nc3)nc(N3CC4CC(N)C4C3)c12 (stereo not shown) [Compound 4.234] | 1 (≈ 2.16 µM) | ≤0.5 | –
CNc1cc(F)cc2c1[nH]c1nc(Oc3cnc(CC(=O)N4CC[C@H](N)C4)nc3)nc(N3C[C@H](N)C4(CC4)C3)c12 [Compound 4.372] | 16 (≈ 29.3 µM) | 4 (≈ 7.32 µM) | –
CNc1cc(F)c(F)c2c1[nH]c1nc(Oc3cnc(C(C)C#N)nc3)nc(N3C[C@H]4C[C@@H]3C[C@H]4N)c12 (stereo partly shown) [Compound 10.95] | – | – | MIC Ec (E. coli ATCC 25922; Table 18, Ec): ≤ 0.5 µg/mL; MIC Sa (S. aureus ATCC 13709; Table 18, Sa): ≤ 0.5 µg/mL
CNc1cc(F)cc2c1[nH]c1nc(Oc3cnc([C@@H](C)O)nc3)nc(N3CCOCC3)c12 [Compound 10.116] | – | – | MIC Ec (E. coli ATCC 25922; Table 18, Ec): ≤ 0.5 µg/mL; MIC Sa (S. aureus ATCC 13709; Table 18, Sa): ≤ 0.5 µg/mL
CNc1cc(F)cc2c1[nH]c1nc(Oc3cncc(F)c3)nc(N3CCC4(CC4N)C3)c12 (stereo not shown) [Compound 4.062] | ≤0.5 | ≤0.5 | –
Cc1ncc(Oc2nc(N3CC(N)C4(CC4)C3)c3c(n2)[nH]c2c(N)cc(F)cc23)cn1 (stereo not shown) [Compound 2.9] | 16 (≈ 38.1 µM) | 16 (≈ 38.1 µM) | –
CNc1cccc2c1[nH]c1nc(Sc3cnc4ccc[n+]([O-])c4c3)nc(N3CC(N)C4(CC4)C3)c12 (stereo not shown) [Compound 1.40] | – | – | MIC (E. coli ATCC 25922; [3]): 1 µg/mL (≈ 2.06 µM); MIC (S. aureus ATCC 13709; [4]): ≤ 0.5 µg/mL
CNc1cc(F)cc2c1[nH]c1nc(Oc3cnc(SC)nc3)nc(N3CC4(CC[C@H]4N)C3)c12 [Compound 4.202] | ≤0.5 | ≤0.5 | –
Nc1cccc2c1[nH]c1nc(Sc3cnc4ccc[n+]([O-])c4c3)nc(N3CC4C(N)C4C3)c12 (stereo not shown) [Compound 1.08] | >64 | 64 (≈ 140 µM) | –
CNc1cccc2c1[nH]c1nc(Oc3cnc(C)nc3)cc(Oc3cnc(C)nc3)c12 [Compound 3.38] | – | – | MIC (E. coli ATCC 25922; [3]): > 32 µg/mL; MIC (S. aureus ATCC 13709; [4]): 1 µg/mL (≈ 2.42 µM)
CNc1cc(F)cc2c1[nH]c1nc(Oc3cnc4cccnc4c3)nc(N3CC4CC4(N)C3)c12 (stereo not shown) [Compound 4.036] | ≤0.5 | ≤0.5 | –

Compound | MIC Ec (E. coli ATCC 25922; [1]) [µg/mL] | MIC Sa (S. aureus ATCC 13709; [2]) [µg/mL] | other results
CNc1cc(F)cc2c1[nH]c1nc(Oc3cnc(C(C)(C)C)nc3)nc(N3CC4CC3C[C@H]4N)c12 (stereo partly shown) [Compound 4.441] | – | – | MIC (E. coli ATCC 25922; [3]): ≤ 0.5 µg/mL; MIC (S. aureus ATCC 13709; [4]): ≤ 0.5 µg/mL
COc1cccc2c1[nH]c1nc(Oc3cccc(C#N)c3)nc(N3CC4C(N)C4C3)c12 (stereo not shown) [Compound 2.15] | >32 | 1 (≈ 2.42 µM) | –
CNc1cc(F)cc2c1[nH]c1nc(Oc3ccn4ccnc4c3)nc(N3C[C@H]4C[C@@H]3C[C@H]4N)c12 [Compound 10.22] | – | – | MIC Ec (E. coli ATCC 25922; Table 18, Ec): ≤ 0.5 µg/mL; MIC Sa (S. aureus ATCC 13709; Table 18, Sa): ≤ 0.5 µg/mL
COc1cccc2c1[nH]c1nc(Sc3cnc4ccc[n+]([O-])c4c3)nc(N3CC(N)C3)c12 [Compound 1.77] | – | – | MIC (E. coli ATCC 25922; [3]): > 64 µg/mL; MIC (S. aureus ATCC 13709; [4]): 2 µg/mL (≈ 4.49 µM)
CNc1cc(F)cc2c1[nH]c1nc(Cc3cnn(C)c3)nc(N3C[C@H]4C[C@@H]3C[C@H]4N)c12 [Compound 10.47] | – | – | MIC Ec (E. coli ATCC 25922; Table 18, Ec): 8 µg/mL (≈ 19 µM); MIC Sa (S. aureus ATCC 13709; Table 18, Sa): 1 µg/mL (≈ 2.38 µM)
CNc1cc(F)cc2c1[nH]c1nc(Oc3ccnnc3)nc(N3CC(N)C4(CC4)C3)c12 (stereo not shown) [Compound 4.230] | >16 | 32 (≈ 76.1 µM) | –
Cc1ncc(Oc2nc(N3C[C@H](N)C4(CC4)C3)c3c(n2)[nH]c2c(N(C)C(=O)CN)cc(F)cc23)cn1 [Compound 4.426] | – | – | MIC (E. coli ATCC 25922; [3]): > 16 µg/mL; MIC (S. aureus ATCC 13709; [4]): 8 µg/mL (≈ 16.3 µM)
CNc1cc(F)cc2c1[nH]c1nc(Oc3cncc(-c4nnnn4C)c3)nc(N3CCC(N)C3)c12 (stereo not shown) [Compound 4.169] | 8 (≈ 16.8 µM) | 2 (≈ 4.21 µM) | –
CNc1cc(F)cc2c1[nH]c1nc(Oc3cnc(C(C)O)nc3)nc(N3C[C@@H]4[C@H](N)C(F)[C@@H]4C3)c12 (stereo partly shown) [Compound 10.63] | – | – | MIC Ec (E. coli ATCC 25922; Table 18, Ec): ≤ 0.5 µg/mL; MIC Sa (S. aureus ATCC 13709; Table 18, Sa): ≤ 0.5 µg/mL
CNc1cccc2c1[nH]c1nc(Sc3cnc4cccnc4c3)nc(N3CCC(C(O)c4cccs4)CC3)c12 (stereo not shown) [Compound 1.70] | – | – | MIC (E. coli ATCC 25922; [3]): > 32 µg/mL; MIC (S. aureus ATCC 13709; [4]): 1 µg/mL (≈ 1.81 µM)
CNc1cc(F)cc2c1[nH]c1nc(Oc3cnc(C(C)O)nc3)nc(N3CC4(CC[C@]4(C)N)C3)c12 (stereo partly shown) [Compound 10.74] | – | – | MIC Ec (E. coli ATCC 25922; Table 18, Ec): 1 µg/mL (≈ 2.09 µM); MIC Sa (S. aureus ATCC 13709; Table 18, Sa): ≤ 0.5 µg/mL
CNc1cc(F)cc2c1[nH]c1nc(Oc3cnc(N)nc3)nc(N3CCCC(N)C3)c12 (stereo not shown) [Compound 4.180] | 8 (≈ 18.9 µM) | 1 (≈ 2.36 µM) | –
CNc1cccc2c1[nH]c1nc(Sc3cnc4ccc[n+]([O-])c4c3)nc(N3CC4C(N)C4C3)c12 (stereo not shown) [Compound 1.49] | ≤0.5 | ≤0.5 | –
CNc1cc(F)cc2c1[nH]c1nc(Oc3cnc(/C(C)=N/OC)nc3)nc(N3C[C@H]4C[C@@H]3C[C@H]4N)c12 [Compound 10.27] | – | – | MIC Ec (E. coli ATCC 25922; Table 18, Ec): ≤ 0.5 µg/mL; MIC Sa (S. aureus ATCC 13709; Table 18, Sa): ≤ 0.5 µg/mL
CNc1cc(F)cc2c1[nH]c1nc(Oc3cnc(C4CCC4)nc3)nc(N3CC4C(N)C4C3)c12 (stereo not shown) [Compound 4.286] | ≤0.5 | ≤0.5 | –
CNc1cc(F)cc2c1[nH]c1nc(Oc3cnc(C)nc3)nc(N3CCC(C(C)=O)C3)c12 (stereo not shown) [Compound 10.113] | – | – | MIC Ec (E. coli ATCC 25922; Table 18, Ec): ≤ 0.5 µg/mL; MIC Sa (S. aureus ATCC 13709; Table 18, Sa): ≤ 0.5 µg/mL
CNc1cc(F)cc2c1[nH]c1nc(Oc3cnc(C)nc3)nc(N3CCC(C4(N)CC4)C3)c12 (stereo not shown) [Compound 4.083] | ≤0.5 | ≤0.5 | –
CNc1cc(F)cc2c1[nH]c1nc(Oc3cnc4c(C)cnn4c3)nc(N3C[C@H]4CCN[C@H]4C3)c12 [Compound 10.24] | – | – | MIC Ec (E. coli ATCC 25922; Table 18, Ec): ≤ 0.5 µg/mL; MIC Sa (S. aureus ATCC 13709; Table 18, Sa): ≤ 0.5 µg/mL
CNc1cc(F)cc2c1[nH]c1nc(Oc3cnc(N4CCCC4=O)nc3)nc(N3CC4C(N)C4C3)c12 (stereo not shown) [Compound 4.345] | 2 (≈ 4.09 µM) | ≤0.5 | –
CNc1cc(F)cc2c1[nH]c1nc(Oc3cnc4cccnc4c3)nc(N3CC4CCNC4C3)c12 (stereo not shown) [Compound 4.044] | ≤0.5 | ≤0.5 | –
CNc1cc(F)cc2c1[nH]c1nc(Oc3cnc(N)nc3)nc(N3CC4CC(N)C4C3)c12 (stereo not shown) [Compound 4.184] | 1 (≈ 2.3 µM) | ≤0.5 | –
CNc1cccc2c1[nH]c1nc(Sc3cnc4ccc[n+]([O-])c4c3)nc(N3C[C@@H]4[C@H](C3)[C@@]4(N)C(N)=O)c12 [Compound 1.19] | >64 | >64 | –
CNc1ccc(C)c2c1[nH]c1nc(Sc3cnc4cccnc4c3)nc(N3CC4C(N)C4C3)c12 (stereo not shown) [Compound 1.58] | – | – | MIC (E. coli ATCC 25922; [3]): 8 µg/mL (≈ 17.1 µM); MIC (S. aureus ATCC 13709; [4]): ≤ 0.5 µg/mL

Reference: patent US10865216B2, “Tricyclic Gyrase inhibitors” (MERCK SHARP & DOHME CORP., priority 2012, dated 2020)
